Measured values: patent US20130040882A1, “USE OF FIBROBLAST GROWTH FACTOR FRAGMENTS” (NOVARTIS AG, priority 2003, published 2013)

Tested on: uterine gene expression
Assay: Gene expression profiling (HGU133A) in the uterus of ovariectomized monkeys treated with estradiol, tamoxifen or raloxifene
Format: in vivo, cynomolgus monkeys (Macaca fascicularis)
Conditions: uterus, OVX monkeys

C#C[C@]1(O)CC[C@H]2[C@@H]3CCc4cc(O)ccc4[C@H]3CC[C@@]21C [EE]
Fold change relative to SHAM control: Insulin-like growth factor binding protein 2, 36 kda: 4.4 fold | Fold change relative to SHAM control: Insulin-like growth factor binding protein 5: 2.8 fold | Fold change relative to SHAM control: Integrin, beta 5: 1.0 fold | Fold change relative to SHAM control: Intercrine-alpha, mrna sequence: 0.9 fold | Fold change relative to SHAM control: LDL receptor adaptor protein: 0.8 fold | Fold change relative to SHAM control: LIM and senescent cell antigen-like domains 1: 1.4 fold | Fold change relative to SHAM control: Laminin, beta 1: 1.0 fold | Fold change relative to SHAM control: Latent transforming growth factor beta binding protein 1: 1.7 fold | Fold change relative to SHAM control: Matrix metalloproteinase 19: 1.2 fold | Fold change relative to SHAM control: Mitogen-activated protein kinase kinase kinase kinase 4: 0.9 fold | Fold change relative to SHAM control: Nidogen (enactin): 2.6 fold | Fold change relative to SHAM control: Osteoglycin (osteoinductive factor, mimecan): 1.0 fold | Fold change relative to SHAM control: Peroxiredoxin 1: 1.6 fold | Fold change relative to SHAM control: Phosphatase and tensin homolog (mutated in multiple advanced cancers 1): 1.2 fold | Fold change relative to SHAM control: Phospholipid transfer protein: 1.3 fold | Fold change relative to SHAM control: Pituitary tumour-transforming 1 interacting protein: 0.9 fold | Fold change relative to SHAM control: Procollagen C-endopeptidase enhancer: 1.5 fold | Fold change relative to SHAM control: Procollagen-proline, 2-oxoglutarate 4-dioxygenase (proline 4-hydroxylase), alpha polypeptide II: 1.7 fold | Fold change relative to SHAM control: Progesterone receptor: 3.2 fold | Fold change relative to SHAM control: Protein tyrosine kinase 9: 1.3 fold | Fold change relative to SHAM control: SET domain, bifurcated 1: 2.3 fold | Fold change relative to SHAM control: SPARC-like 1 (mast9, hevin): 1.5 fold | Fold change relative to SHAM control: Secreted frizzled-related protein 1: 3.6 fold | Fold change relative to SHAM control: Secreted frizzled-related protein 4: 1.9 fold | Fold change relative to SHAM control: Secreted protein, acidic, cysteine-rich (osteonectin): 1.4 fold | Fold change relative to SHAM control: Serine (or cysteine) proteinase inhibitor, clade H (heat shock protein 47), member 1, (collagen binding protein 1): 1.6 fold | Fold change relative to SHAM control: Solute carrier family 22 (organic cation transporter), member 1-like: 1.6 fold | Fold change relative to SHAM control: Solute carrier family 25 (mitochondrial carrier; adenine nucleotide translocator), member 5: 1.7 fold | Fold change relative to SHAM control: Stem cell growth factor; lymphocyte secreted C-type lectin: 1.4 fold | Fold change relative to SHAM control: Tenascin C (hexabrachion): 0.9 fold | Fold change relative to SHAM control: Testis Enhanced Gene Transcript (Bax Inhibitor 1): 1.8 fold | Fold change relative to SHAM control: Thioredoxin interacting protein: 0.5 fold | Fold change relative to SHAM control: Transforming growth factor, beta-induced, 68 kda: 0.8 fold | Fold change relative to SHAM control: Ubiquinol-cytochrome c reductase, Rieske iron-sulfur polypeptide 1: 1.1 fold | Fold change relative to SHAM control: Wingless-type MMTV integration site family, member 2B: 1.5 fold | Fold change relative to SHAM control: Wingless-type MMTV integration site family, member 16: 0.9 fold | Fold change relative to OVX: Insulin receptor (Table 46): 0.8 fold | Fold change relative to SHAM control: Insulin receptor (Table 46): 1.2 fold | Fold change relative to OVX: Insulin receptor (Table 51): 0.8 fold | Fold change relative to SHAM control: Insulin receptor (Table 51): 1.2 fold | Fold change relative to OVX: Fibronectin 1 (entry with OVX average 39): 1.6 fold | Fold change relative to OVX: Bone morphogenetic protein 1 (entry with OVX average 79): 2.6 fold | Fold change relative to OVX: Bone morphogenetic protein 1 (entry with OVX average 93): 2.9 fold | Fold change relative to OVX: Insulin-like growth factor 1 (somatomedin C) (entry with OVX average 102): 5.3 fold | Fold change relative to OVX: Fibrillin 1 (Marfan syndrome) (entry with OVX average 124): 2.2 fold | Fold change relative to OVX: Collagen, type I, alpha 2 (entry with OVX average 154): 13.2 fold | Fold change relative to OVX: Insulin-like growth factor 1 (somatomedin C) (entry with OVX average 156): 6.9 fold | Fold change relative to OVX: Solute carrier family 2 (facilitated glucose/fructose transporter), member 5 (entry with OVX average 171): 4.4 fold | Fold change relative to OVX: Solute carrier family 2 (facilitated glucose/fructose transporter), member 5 (entry with OVX average 176): 3.5 fold | Fold change relative to OVX: Collagen, type IV, alpha 1 (entry with OVX average 182): 4.3 fold | Fold change relative to OVX: Cyclin-dependent kinase inhibitor 1C (p57, Kip2) (entry with OVX average 224): 0.5 fold | Fold change relative to OVX: Insulin-like growth factor 1 (somatomedin C) (entry with OVX average 310): 6.3 fold | Fold change relative to OVX: Fibronectin 1 (entry with OVX average 419): 2.4 fold | Fold change relative to OVX: Cyclin-dependent kinase inhibitor 1C (p57, Kip2) (entry with OVX average 527): 0.4 fold | Fold change relative to OVX: Fibronectin 1 (entry with OVX average 586): 2.1 fold | Fold change relative to OVX: Fibronectin 1 (entry with OVX average 648): 1.9 fold | Fold change relative to OVX: Collagen, type IV, alpha 1 (entry with OVX average 690): 3.7 fold | Fold change relative to OVX: Fibronectin 1 (entry with OVX average 757): 1.8 fold | Fold change relative to OVX: Cyclin-dependent kinase inhibitor 1C (p57, Kip2) (entry with OVX average 762): 0.5 fold | Fold change relative to OVX: ATP synthase, H+ transporting, mitochondrial F0 complex, subunit c (subunit 9) isoform 3 (entry with OVX average 811): 2.0 fold | Fold change relative to OVX: Fibrillin 1 (Marfan syndrome) (entry with OVX average 874): 3.5 fold | Fold change relative to OVX: ATP synthase, H+ transporting, mitochondrial F0 complex, subunit c (subunit 9) isoform 3 (entry with OVX average 1007): 2.0 fold | Fold change relative to OVX: Collagen, type III, alpha 1 (Ehlers-Danlos syndrome type IV, autosomal dominant) (entry with OVX average 1084): 6.8 fold | Fold change relative to OVX: Collagen, type I, alpha 2 (entry with OVX average 2757): 5.1 fold | Fold change relative to OVX: Collagen, type III, alpha 1 (Ehlers-Danlos syndrome type IV, autosomal dominant) (entry with OVX average 3445): 4.1 fold | Fold change relative to OVX: H3 histone, family 3A (entry with OVX average 9495): 1.5 fold | Fold change relative to OVX: H3 histone, family 3A (entry with OVX average 9692): 1.4 fold | Fold change relative to SHAM control: Fibronectin 1 (entry with SHAM average 100): 0.6 fold | Fold change relative to SHAM control: Bone morphogenetic protein 1 (entry with SHAM average 143): 1.4 fold | Fold change relative to SHAM control: Cyclin-dependent kinase inhibitor 1C (p57, Kip2) (entry with SHAM average 201): 0.6 fold | Fold change relative to SHAM control: Bone morphogenetic protein 1 (entry with SHAM average 205): 1.3 fold | Fold change relative to SHAM control: Insulin-like growth factor 1 (somatomedin C) (entry with SHAM average 226): 2.4 fold | Fold change relative to SHAM control: Fibrillin 1 (Marfan syndrome) (entry with SHAM average 236): 1.2 fold | Fold change relative to SHAM control: Solute carrier family 2 (facilitated glucose/fructose transporter), member 5 (entry with SHAM average 291): 2.1 fold | Fold change relative to SHAM control: Solute carrier family 2 (facilitated glucose/fructose transporter), member 5 (entry with SHAM average 317): 2.4 fold | Fold change relative to SHAM control: Insulin-like growth factor 1 (somatomedin C) (entry with SHAM average 417): 2.6 fold | Fold change relative to SHAM control: Collagen, type IV, alpha 1 (entry with SHAM average 436): 1.8 fold | Fold change relative to SHAM control: Cyclin-dependent kinase inhibitor 1C (p57, Kip2) (entry with SHAM average 459): 0.5 fold | Fold change relative to SHAM control: Collagen, type I, alpha 2 (entry with SHAM average 493): 4.1 fold | Fold change relative to SHAM control: Insulin-like growth factor 1 (somatomedin C) (entry with SHAM average 581): 3.4 fold | Fold change relative to SHAM control: Cyclin-dependent kinase inhibitor 1C (p57, Kip2) (entry with SHAM average 660): 0.5 fold | Fold change relative to SHAM control: Fibronectin 1 (entry with SHAM average 920): 1.1 fold | Fold change relative to SHAM control: ATP synthase, H+ transporting, mitochondrial F0 complex, subunit c (subunit 9) isoform 3 (entry with SHAM average 1045): 1.6 fold | Fold change relative to SHAM control: Fibronectin 1 (entry with SHAM average 1089): 1.1 fold | Fold change relative to SHAM control: Collagen, type IV, alpha 1 (entry with SHAM average 1143): 2.2 fold | Fold change relative to SHAM control: Fibronectin 1 (entry with SHAM average 1288): 0.9 fold | Fold change relative to SHAM control: Fibronectin 1 (entry with SHAM average 1301): 1.1 fold | Fold change relative to SHAM control: ATP synthase, H+ transporting, mitochondrial F0 complex, subunit c (subunit 9) isoform 3 (entry with SHAM average 1355): 1.5 fold | Fold change relative to SHAM control: Fibrillin 1 (Marfan syndrome) (entry with SHAM average 1388): 2.2 fold | Fold change relative to SHAM control: Collagen, type III, alpha 1 (Ehlers-Danlos syndrome type IV, autosomal dominant) (entry with SHAM average 2992): 2.5 fold | Fold change relative to SHAM control: Collagen, type III, alpha 1 (Ehlers-Danlos syndrome type IV, autosomal dominant) (entry with SHAM average 7354): 1.9 fold | Fold change relative to SHAM control: Collagen, type I, alpha 2 (entry with SHAM average 7758): 1.8 fold | Fold change relative to SHAM control: H3 histone, family 3A (entry with SHAM average 9408): 1.5 fold | Fold change relative to SHAM control: H3 histone, family 3A (entry with SHAM average 10239): 1.4 fold
